This is an account of results in US11857544B2, “Composition or method including (t)ew-7197 for treating or preventing corneal endothelial diseases” (THE DOSHISHA, priority 2017, dated 2024).

One test has as its system fibronectin. The experiment in a line: Western blot for fibronectin in TGF-β-stimulated iFECD. Particulars: any of the concentrations 0.1, 1, 10 μM. The format is cell-based, human. The procedure: […] were seeded on a 12-well plate at a ratio of 8×10^4 cells per well, and cultured at 37° C. (5% CO2) for 24 hours. DMEM+10% FBS+1% P/S was used as the medium. After 24 hours, the medium was removed. EW-7197 (Selleck Chemicals, 57530) was added so that the final concentration would be 0.1, 1, or 10 μM, and SB431542 (WAKO, 192-16541) was added so that the final concentration would be 10 μM, and the medium was cultured for 24 hours. DMEM+2% FBS+1% P/S was used as the medium. After 24 hours, the medium was removed and cultured […] so that the final concentration of 10 ng/ml of Transforming Growth Factor-132 Human recombinant (WAKO, 200-19911) and […] would be 0.1, 1, and 10 μM, and that of SB431542 would be 10 μM. DMEM+2% FBS+1% P/S was used as the medium. After 24 hours, the cell morphology and apoptosis were observed under a phase contrast microscope. To retrieve floating and dead cells, the medium was retrieved on ice, cells were washed twice with 1×PBS(-) and the solution thereof was also retrieved. The solution was centrifuged for 5 min at 4° C. and 800 g and the supernatant was discarded to obtain a precipitate. […] The detected band intensities were analyzed with Lumino Image Analyzer LAS-4000 mini (Fuji Film) and ImageQuantTM software (GE Healthcare).
A general note: A western blot detects proteins with antibodies after separation by electrophoresis.

The subject of the next test is Col8a2 knock-in mice. The test is described as follows: Corneal endothelial cell density after eye drops in Col8a2 knock-in mice (Example 6, 12 weeks). Particulars: eye drop group (0.02%, 0.1%). In kind it is in vivo. The method, then: 5 μL of 0.02% (about 0.5 mM) EW-7197 eye drop, 0.1% (about 2.5 mM) EW-7197 eye drop, or a base agent (DMSO containing phosphate buffer) was administered as an eye drop to both eyes of 4-month-old alpha 2 collagen 8 gene (Col8a2) knock-in mice 4 times a day for 12 weeks. A surfactant was added to the base agent as needed. Those skilled in the art can use an appropriate and suitable surfactant (Kenji Motose (1984). “Tenganzai” [Eye drops] Nanzando; International Pharmaceutical Excipients Council Japan (2016). “Iyakuhin Tenkabutsu Jiten” [Pharmaceutical Excipient Encyclopedia] Yakuji Nippo, Limited). The corneal endothelial cell density was measured using a specular microscope KS3M (Konan Medical, Inc.) at before eye drops, and 3, 6, 9, and 12 weeks after eye drops. Mice were euthanized by intraperitoneally administering an excessive amount (200 mg/kg body weight or greater) of anesthetic injection Somnopentyl (Kyoritsu Seiyaku Corporation) 12 weeks after injection. After confirming cardiac arrest, both eye balls were harvested. The harvested eye balls were incised to prepare a corneal fragment. Immunostaining of fibronectin was performed. The immunostaining method was the following. Image-Pro (Nippon Roper K.K.) was used to analyze the area of fibronectin expression.

In another test the test system is type I collagen. The experiment in a line: Area of type I collagen expression by immunostaining, Col8a2 knock-in mice (Example 5). The format is in vivo. Particulars: 0.02% eye drop, 8 weeks. The method, then:
5 μL of 0.02% (about 0.5 mM) EW-7197 eye drop or a base agent (7% DMSO containing PBS) was administered as an eye drop to both eyes of 4-month-old alpha 2 collagen 8 gene (Col8a2) knock-in mice 4 times a day for 8 weeks. The corneal endothelial cell density was measured using a specular microscope KS3M (Konan Medical, Inc.) at before eye drops, and 2, 4, 6, and 8 weeks after eye drops. Mice were euthanized by intraperitoneally administering an excessive amount (200 mg/kg body weight or greater) of anesthetic injection Somnopentyl (Kyoritsu Seiyaku Corporation) 8 weeks after injection. After confirming cardiac arrest, both eye balls were harvested. The harvested eye balls were incised to prepare a corneal fragment. Immunostaining of type I collagen and fibronectin was performed as follows. Image-Pro (Nippon Roper K.K.) was used to analyze the area of type I collagen and fibronectin expression.
After immobilizing a mouse corneal fragment for 10 minutes at room temperature in 4% paraformaldehyde, 0.5% TritonX-100 was added and allowed to permeate for 5 minutes. 1% bovine serum albumin (BSA) was added and the fragment was incubated for 1 hour at room temperature. The corneal fragment was then immersed in a primary antibody solution and reacted overnight at 4° C. […]

As to `Cc1cccc(-c2[nH]c(CNc3ccccc3F)nc2-c2ccc3ncnn3c2)n1` [EW-7197, N-((4-([1,2,4]triazolo[1,5-a]pyridin-6-yl)-5-(6-methylpyridin-2-yl)-1H-imidazol-2-yl)methyl)-2-fluoroaniline], the “expression of fibronectin (about 240 kDa)” value in the test with fibronectin was “suppressed to the same degree as the control group without stimulation with TGF-β or 10 μM of SB431542”. Also, in the test with Col8a2 knock-in mice (up to week 6), the “corneal endothelial density at the center section of the cornea” value is listed as “tendency for suppressing a decrease”. Besides, the “corneal endothelial density at the center section of the cornea vs base agent eye drop group” value in the test with Col8a2 knock-in mice (week 12) is recorded as “a significant difference in the corneal endothelial density at the center section of the cornea was not observed”. Also, the “area of type I collagen expression compared to the base agent group” value with type I collagen was “decreasing trend”.
